Reference: ChEMBL document CHEMBL4732190, “Identification of Potent and Long-Acting Single-Chain Peptide Mimetics of Human Relaxin-2 for Cardiovascular Diseases” (J Med Chem, 2021)
Converted amounts (≈) assume the structure as drawn. *1 amine or outer side, *2 acyl side, *3 side chain or, on linkers, in order; H or OH if unused. Where a SMILES comes first, the peptide text is derived from it. [ ]: non-standard residue; d: D form. β2hAla(2S) = C[C@@H](CN[*:1])C(=O)[*:2]; X4 = CCCC[C@H](O[*:1])C(=O)[*:2]; hLys = NCCCCC[C@H](N)C(=O)O; Orn = NCCC[C@H](N)C(=O)O

Experiments:
[1] = Stability in human plasma assessed as parent compound remaining level at 5 uM remaining after 4 hrs; type: ADME, cell-free; conditions: read-out: Stabilty
Relaxin receptor 1 = target: T1, Relaxin receptor 1 (Homo sapiens, UniProt Q9HBX9); experiment: Agonist activity at RXFP1 endogenously expressed in human OVCAR-5 cells assessed as increase in IBMX-induced cAMP accumulation pretreated with IBMX for 40 mins followed by compound addition and measured after 30 mins by HTRF assay; type: functional, cell-based
T1 sequence (Q9HBX9 whole entry): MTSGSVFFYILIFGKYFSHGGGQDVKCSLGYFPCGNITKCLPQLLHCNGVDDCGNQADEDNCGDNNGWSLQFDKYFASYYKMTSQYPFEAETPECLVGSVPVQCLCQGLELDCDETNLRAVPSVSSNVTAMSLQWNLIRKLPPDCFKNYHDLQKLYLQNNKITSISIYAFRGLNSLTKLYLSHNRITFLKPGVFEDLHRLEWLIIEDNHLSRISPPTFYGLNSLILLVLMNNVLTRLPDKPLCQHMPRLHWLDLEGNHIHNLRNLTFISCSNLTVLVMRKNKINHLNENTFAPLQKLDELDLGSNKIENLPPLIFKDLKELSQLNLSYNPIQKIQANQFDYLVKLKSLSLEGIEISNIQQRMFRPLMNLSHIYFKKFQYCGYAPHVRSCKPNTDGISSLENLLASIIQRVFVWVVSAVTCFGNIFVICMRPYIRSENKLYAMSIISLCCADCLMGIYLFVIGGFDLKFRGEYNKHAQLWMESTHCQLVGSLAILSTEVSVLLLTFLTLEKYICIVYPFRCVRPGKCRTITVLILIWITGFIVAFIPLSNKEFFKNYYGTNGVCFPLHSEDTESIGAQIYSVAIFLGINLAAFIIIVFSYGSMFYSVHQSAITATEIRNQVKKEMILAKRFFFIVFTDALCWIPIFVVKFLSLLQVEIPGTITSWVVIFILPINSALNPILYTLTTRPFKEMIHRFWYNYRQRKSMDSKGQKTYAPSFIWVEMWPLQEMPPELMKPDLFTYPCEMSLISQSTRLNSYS

[2] = target: T2, Relaxin receptor 1 (Homo sapiens) (UniProt Q9HBX9); experiment: Agonist activity at RXFP1 endogenously expressed in human OVCAR-5 cells assessed as increase in IBMX-induced cAMP accumulation pretreated with IBMX for 40 mins followed by compound addition and measured after 30 mins by HTRF assay relative to relaxin; type: functional, cell-based; conditions: filed as agonist
T2 sequence (whole entry): T1 sequence (Q9HBX9 whole entry)

[3] = Aqueous solubility of compound in acetate buffer at pH 4.5 measured after 24 hrs by UPLC analysis; type: physicochemical
[4] = Aqueous solubility of compound in phosphate buffer at pH 7.4 measured after 24 hrs by UPLC analysis; type: physicochemical
[5] = Stability in rat plasma assessed as parent compound remaining level at 5 uM remaining after 4 hrs; type: ADME, cell-free; conditions: read-out: Stabilty

With `CC[C@H](C)[C@H](NC(=O)[C@H](CCC(N)=O)NC(=O)[C@H](C)NC(=O)[C@H](CCCNC(=N)N)NC(=O)[C@@H](NC(=O)[C@H](CCCCN)NC(=O)[C@H](CCC(=O)O)NC(=O)[C@H](CCCNC(=N)N)NC(=O)CNC(=O)[C@H](CCC(=O)O)NC(=O)[C@H](CC(C)C)NC(=O)[C@H](CCCCN)NC(=O)[C@@H](NC(=O)[C@@H](NC(=O)[C@H](CCC(=O)O)NC(=O)[C@H](CCC(=O)O)NC(C)=O)C(C)C)[C@@H](C)CC)C(C)C)C(=O)NC[C@H](C)C(=O)NC[C@H](C)C(=O)N[C@@H](CCC(=O)O)C(=O)NCC(=O)N[C@@H](CCSC)C(=O)N[C@@H](CO)C(=O)N[C@H](C(=O)N[C@@H](Cc1c[nH]c2ccccc12)C(=O)N[C@@H](CO)C(=O)NC[C@H](C)C(=O)N[C@@H](CCCNC(=N)N)C(=O)N[C@@H](CCCCN)C(=O)N[C@@H](CCCCN)C(N)=O)[C@@H](C)O` (Ac-EEVIKLEGREKVRAQI[β2hAla(2S)][β2hAla(2S)]EGMSTWS[β2hAla(2S)]RKK-NH2) the remaining at 4 h, 5 µM [1] was 80%, the EC50 (Relaxin receptor 1) was 17.8 nM and the Emax [2] was 99%. It also gave a solubility at 24 h [3] of 2800 µg/mL (≈ 827 µM), a solubility at 24 h [4] of 2400 µg/mL (≈ 709 µM) and a remaining at 4 h, 5 µM [5] of 60%.
In the case of `CCCC[C@H](OC(=O)CNC(=O)[C@H](CCC(=O)O)NC(=O)[C@@H](C)CNC(=O)[C@@H](C)CNC(=O)[C@@H](NC(=O)[C@H](CCCCCNC(C)=O)NC(=O)[C@@H](C)CNC(=O)[C@@H](C)CNC(=O)[C@H](CCCCN)NC(=O)[C@H](C)NC(=O)[C@H](CCCNC(=N)N)NC(=O)[C@@H](NC(=O)[C@H](CCCCN)NC(=O)[C@H](CCC(=O)O)NC(=O)[C@H](CCCNC(=N)N)NC(=O)CNC(=O)[C@H](CCC(=O)O)NC(=O)[C@H](CC(C)C)NC(C)=O)C(C)C)[C@@H](C)CC)C(=O)N[C@@H](CO)C(=O)N[C@H](C(=O)N[C@@H](Cc1c[nH]c2ccccc12)C(=O)N[C@@H](CO)C(=O)NC[C@H](C)C(=O)N[C@@H](CCCNC(=N)N)C(=O)N[C@@H](CCCCN)C(=O)N[C@@H](CCCN)C(=O)N[C@@H](CCCCCNC(C)=O)C(N)=O)[C@@H](C)O` (Ac-LEGREKVRAK[β2hAla(2S)][β2hAla(2S)][hLys](Ac)I[β2hAla(2S)][β2hAla(2S)]EG[X4]STWS[β2hAla(2S)]RK[Orn][hLys](Ac)-NH2), the remaining at 4 h, 5 µM [1] is reported as 74%, the EC50 (Relaxin receptor 1) is reported as 18 nM and the Emax [2] is reported as 93%. The solubility at 24 h [3] was 4000 µg/mL (≈ 1210 µM), the solubility at 24 h [4] was 4000 µg/mL (≈ 1210 µM) and the remaining at 4 h, 5 µM [5] was 60%.
Work on `CC[C@H](C)[C@H](NC(=O)[C@H](CCC(N)=O)NC(=O)[C@H](C)NC(=O)[C@H](CCCNC(=N)N)NC(=O)[C@@H](NC(=O)[C@H](CCCCN)NC(=O)[C@H](CCC(=O)O)NC(=O)[C@H](CCCNC(=N)N)NC(=O)CNC(=O)[C@H](CCC(=O)O)NC(=O)[C@H](CC(C)C)NC(C)=O)C(C)C)C(=O)NC[C@H](C)C(=O)NC[C@H](C)C(=O)N[C@@H](CCC(=O)O)C(=O)NCC(=O)N[C@@H](CCSC)C(=O)N[C@@H](CO)C(=O)N[C@H](C(=O)N[C@@H](Cc1c[nH]c2ccccc12)C(=O)N[C@@H](CO)C(=O)NC[C@H](C)C(=O)N[C@@H](CCCNC(=N)N)C(=O)N[C@@H](CCCCN)C(=O)N[C@@H](CCCCN)C(N)=O)[C@@H](C)O` (Ac-LEGREKVRAQI[β2hAla(2S)][β2hAla(2S)]EGMSTWS[β2hAla(2S)]RKK-NH2) yielded a remaining at 4 h, 5 µM [1] of 93%, an EC50 (Relaxin receptor 1) of 14 nM and an Emax [2] of 99%. The solubility at 24 h [3] was 6100 µg/mL (≈ 2190 µM), the solubility at 24 h [4] was 5800 µg/mL (≈ 2080 µM) and the remaining at 4 h, 5 µM [5] was 101%.
